Measured values taken from paper PMC9267968, “Continued Structural Exploration of Sulfocoumarin as Selective Inhibitor of Tumor-Associated Human Carbonic Anhydrases IX and XII” (Molecules, 2022).
Values joined by “and” are separate entries in the source; they are usually repeats but may differ in a detail not shown here. Identical values can stand only once. One block for each compound: values may come before it.

Columns and labels:
hCA XII = target: T1, hCA XII (Homo sapiens, UniProt O43570); assay: biochemical; details: 6 h incubation of enzyme and inhibitor; mean from 3 different assays, errors 5-10%; read-out: KI (nM) CA XII
T1 construct: made in house
T1 sequence (O43570 25-354): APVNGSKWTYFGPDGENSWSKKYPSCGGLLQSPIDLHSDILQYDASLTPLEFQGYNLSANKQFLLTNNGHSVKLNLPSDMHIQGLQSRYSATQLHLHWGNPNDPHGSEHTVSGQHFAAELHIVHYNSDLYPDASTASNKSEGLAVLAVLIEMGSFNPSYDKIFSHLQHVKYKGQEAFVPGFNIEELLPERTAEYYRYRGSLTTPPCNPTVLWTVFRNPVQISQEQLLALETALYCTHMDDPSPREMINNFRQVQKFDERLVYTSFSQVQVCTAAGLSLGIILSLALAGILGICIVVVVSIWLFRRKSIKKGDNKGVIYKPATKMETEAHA
Description: (§1) For this reason, we herein report a 6 h incubation time instead.
(§2) An Applied Photophysics stopped-flow instrument was used for assaying the CA catalyzed CO2 hydration activity. […] The uncatalyzed rates were determined in the same manner and subtracted from the total observed rates. Stock solutions of inhibitor (0.1 mM) were prepared in distilled–deionized water and dilutions up to 0.01 nM were done thereafter with the assay buffer. Inhibitor and enzyme solutions were preincubated together for 6h at room temperature prior to assay, in order to allow for the formation of the E-I complex. The inhibition constants were obtained by non-linear least-squares methods using PRISM 3 and the Cheng–Prusoff equation and represent the mean from at least three different determinations. […] All CA isoforms were recombinant ones obtained in-house.

hCA I = target: T2, hCA I (Homo sapiens, UniProt P00915); assay: stopped-flow CO2 hydrase assay, hCA I inhibition; assay type: biochemical; details: 6 h incubation of enzyme and inhibitor; mean from 3 different assays, errors 5-10%; read-out: KI (nM) CA I
T2 construct: made in house
T2 sequence (P00915 whole entry): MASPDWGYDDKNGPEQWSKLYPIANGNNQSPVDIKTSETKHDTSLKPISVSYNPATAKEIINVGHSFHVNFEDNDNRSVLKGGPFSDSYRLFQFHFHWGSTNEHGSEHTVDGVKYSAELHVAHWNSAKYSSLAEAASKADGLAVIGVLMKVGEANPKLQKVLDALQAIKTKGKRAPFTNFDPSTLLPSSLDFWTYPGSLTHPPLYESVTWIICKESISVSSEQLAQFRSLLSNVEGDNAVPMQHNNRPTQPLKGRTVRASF
Description: as §1, §2

hCA IX = target: T3, hCA IX (Homo sapiens, UniProt Q16790); assay: stopped-flow CO2 hydrase assay, hCA IX inhibition; assay type: biochemical; details: 6 h incubation of enzyme and inhibitor; mean from 3 different assays, errors 5-10%; read-out: KI (nM) CA IX
T3 construct: made in house
Description: as §1, §2

hCA II = target: T4, hCA II (Homo sapiens, UniProt P00918); assay: stopped-flow CO2 hydrase assay, hCA II inhibition; assay type: biochemical; details: 6 h incubation of enzyme and inhibitor; mean from 3 different assays, errors 5-10%; read-out: KI (nM) CA II
T4 construct: made in house
Description: as §1, §2

SMILES: COc1ccc2c(c1)OS(=O)(=O)C=C2 [Compound 9, 7-Methoxybenzo[e][1,2]oxathiine 2,2-dioxide]
melting point: 111 to 112 °C | Ki (hCA XII): 61.4 nM | Ki (hCA I): > 100000 nM | Ki (hCA IX): 74.9 nM

SMILES: COc1ccc2c(c1)OS(=O)(=O)C=C2C [Compound 10, 7-Methoxy-4-methylbenzo[e][1,2]oxathiine 2,2-dioxide]
melting point: 151 to 153 °C | Ki (hCA II): 8810 nM | Ki (hCA XII): 73.9 nM | Ki (hCA I): > 100000 nM | Ki (hCA IX): 97.2 nM

SMILES: O=S1(=O)C=Cc2ccc(O)cc2O1 [Compound 11, 7-Hydroxybenzo[e][1,2]oxathiine 2,2-dioxide]
melting point: 157 to 159 °C | Ki (hCA XII): 42.5 nM | Ki (hCA I): 16500 nM | Ki (hCA IX): 55.8 nM

SMILES: CC1=CS(=O)(=O)Oc2cc(O)ccc21 [Compound 12, 7-Hydroxy-4-methylbenzo[e][1,2]oxathiine 2,2-dioxide]
melting point: 172 to 175 °C | Ki (hCA II): 3860 nM | Ki (hCA XII): 55 nM | Ki (hCA I): 9960 nM | Ki (hCA IX): 81.7 nM

SMILES: CC1=CS(=O)(=O)Oc2cc(OCc3ccc(F)cc3)ccc21 [Compound 19, 7-((4-fluorobenzyl)oxy)-4-methylbenzo[e][1,2]oxathiine 2,2-dioxide]
melting point: 195 to 198 °C | Ki (hCA II): > 100000 nM | Ki (hCA XII): 41.7 nM | Ki (hCA I): > 100000 nM | Ki (hCA IX): 14.3 nM

SMILES: CC1=CS(=O)(=O)Oc2cc(OCc3ccc([N+](=O)[O-])cc3)ccc21 [Compound 21, 7-((4-nitrobenzyl)oxy)-4-methylbenzo[e][1,2]oxathiine 2,2-dioxide]
melting point: 247 to 249 °C | Ki (hCA II): > 100000 nM | Ki (hCA XII): 101 nM | Ki (hCA I): > 100000 nM | Ki (hCA IX): 89.7 nM

SMILES: CC1=CS(=O)(=O)Oc2cc(OCc3cccc([N+](=O)[O-])c3)ccc21 [Compound 22, 7-((3-nitrobenzyl)oxy)-4-methylbenzo[e][1,2]oxathiine 2,2-dioxide]
melting point: 239 to 241 °C | Ki (hCA II): > 100000 nM | Ki (hCA XII): 136 nM | Ki (hCA I): > 100000 nM | Ki (hCA IX): 61.4 nM

Other lines, results leading:

melting point: 165 to 167 °C | Ki (hCA XII): 28.3 nM | Ki (hCA I): > 100000 nM | Ki (hCA IX): 55.6 nM
SMILES: O=S1(=O)C=Cc2ccc(OCc3ccccc3)cc2O1 [Compound 13, 7-(Benzyloxy)benzo[e][1,2]oxathiine 2,2-dioxide]

melting point: 197 to 199 °C | Ki (hCA II): > 100000 nM | Ki (hCA XII): 19.2 nM | Ki (hCA I): > 100000 nM | Ki (hCA IX): 22.9 nM
SMILES: O=S1(=O)C=Cc2ccc(OCc3ccc(F)cc3)cc2O1 [Compound 14, 7-((4-Fluorobenzyl)oxy)benzo[e][1,2]oxathiine 2,2-dioxide]

melting point: 180 to 183 °C | Ki (hCA II): > 100000 nM | Ki (hCA XII): 46 nM | Ki (hCA I): > 100000 nM | Ki (hCA IX): 28.4 nM
SMILES: O=S1(=O)C=Cc2ccc(OCc3cccc(F)c3)cc2O1 [Compound 15, 7-((3-Fluorobenzyl)oxy)benzo[e][1,2]oxathiine 2,2-dioxide]

melting point: 215 to 217 °C | Ki (hCA II): > 100000 nM | Ki (hCA XII): 94.7 nM | Ki (hCA I): > 100000 nM | Ki (hCA IX): 68.9 nM and 69.8 nM
SMILES: O=[N+]([O-])c1ccc(COc2ccc3c(c2)OS(=O)(=O)C=C3)cc1 [Compound 16, 7-((4-Nitrobenzyl)oxy)benzo[e][1,2]oxathiine 2,2-dioxide]

melting point: 200 to 202 °C | Ki (hCA II): > 100000 nM | Ki (hCA XII): 77.5 nM | Ki (hCA I): > 100000 nM | Ki (hCA IX): 40.2 nM
SMILES: O=[N+]([O-])c1cccc(COc2ccc3c(c2)OS(=O)(=O)C=C3)c1 [Compound 17, 7-((3-nitrobenzyl)oxy)benzo[e][1,2]oxathiine 2,2-dioxide]

melting point: 174 to 175 °C | Ki (hCA II): > 100000 nM | Ki (hCA XII): 8.6 nM | Ki (hCA I): > 100000 nM | Ki (hCA IX): 49.8 nM
SMILES: CC1=CS(=O)(=O)Oc2cc(OCc3ccccc3)ccc21 [Compound 18, 7-(benzyloxy)-4-methylbenzo[e][1,2]oxathiine 2,2-dioxide]

melting point: 214 to 215 °C | Ki (hCA II): > 100000 nM | Ki (hCA XII): 25.7 nM | Ki (hCA I): > 100000 nM | Ki (hCA IX): 33.2 nM
SMILES: CC1=CS(=O)(=O)Oc2cc(OCc3cccc(F)c3)ccc21 [Compound 20, 7-((3-fluorobenzyl)oxy)-4-methylbenzo[e][1,2]oxathiine 2,2-dioxide]
